Experimental findings from patent US8252294B2, “Methods of screening for compounds that inhibit the biosynthesis of GPI in malaria parasites” (Eisai R&D Management Co., Ltd., priority 2002, dated 2012) are described below.

For one assay, the system named is ScGWT1-expressing yeast. The assay is described as follows: Growth inhibition of GWT1-disrupted yeast expressing S. cerevisiae GWT1 (pGAP-ScGWT1), culture turbidity. The assay is classed as cell-based. The settings on record: for culture turbidity at 660 nm: pGAP-ScGWT1 yeast, 30° C., two days. The method, then: (§1) An expression cassette was constructed by inserting the S. cerevisiae GWT1 terminator, and the S. cerevisiae GAPDH promoter and multi-cloning site into the SacI-KpnI site of the single-copy vector pRS316. S. cerevisiae GWT1 and opfGWT1 were inserted into the multi-cloning site to prepare pGAP-ScGWT1 and pGAP-opfGWT1 plasmids, respectively. These plasmids were introduced into the GWT1 disruptant. Serial two-fold dilutions of compound (1) were prepared using YPAD to make the highest final concentration 50 μg/ml. A 50 μl aliquot of the diluted compound was added to each well of a 96-well plate. Overnight cultures of yeast cells comprising each plasmid were diluted 1000-fold and then a 50 μl aliquot of the dilution was added to each well. The plates were incubated at 30° C. for two days, and then culture turbidity was determined at 660 nm (FIG. 2 and Table 1).

In another assay the test system is opfGWT1-expressing yeast. In words: Growth inhibition of GWT1-disrupted yeast expressing opfGWT1 (pGAP-opfGWT1), culture turbidity. In kind it is cell-based, S. cerevisiae. The conditions noted are these: for culture turbidity at 660 nm: pGAP-opfGWT1 yeast, 30° C., two days. The protocol:
as §1

Assay [1] has as its system P. falciparum FCR3 strain. The assay is described as follows: Antimalarial activity in red blood cell culture system (infection rate by Giemsa staining). The assay is classed as cell-based. The conditions noted are these: human red blood cells infected with P. falciparum FCR3, 48 hours, Giemsa staining (FIG. 3). The method, then:
Specifically, a test compound was dissolved in 100% DMSO, diluted with a medium, and an 80 μl aliquot of the dilution was added to each well of a 96-well culture plate. P. falciparum FCR3 strain was pre-cultured in RPMI1640 medium containing 10% human serum at 37° C., and then 20 μl of the cultured cells (containing 10% red blood cells) was added to each well. At this time, 0.47% of red blood cells were infected. After culturing under 5% O2, 5% CO2, and 90% N2 at 37° C. for 48 hours, the malaria parasites were stained using Giemsa staining. The number of protozoan-infected red blood cells was determined in order to estimate infection rate (FIG. 3).

A word on the inhibition: it is the relative decrease from the control value, in per cent. Read a high inhibition as a strong effect. `CCCCc1ccc(Cc2nccc3ccccc23)cc1` [compound (1), 1-(4-butylbenzyl) isoquinoline]: the inhibition at 25 µg/mL is about 85% in the assay with ScGWT1-expressing yeast (Saccharomyces cerevisiae, ScGWT1-expressing yeast, compound at 25 μg/ml) and about 50% in the assay with opfGWT1-expressing yeast (Saccharomyces cerevisiae, opfGWT1-expressing yeast, compound at 25 μg/ml). Also, the viability of yeast entry in the assay with ScGWT1-expressing yeast (ScGWT1-expressing yeast, compound at 50 μg/ml) was “completely nonviable”; in the assay with opfGWT1-expressing yeast (opfGWT1-expressing yeast, compound at 50 μg/ml) it was “completely nonviable”. Besides, the “culture turbidity at 660 nm” value in the assay with ScGWT1-expressing yeast (compound 6.25 μg/ml) is 0.7370; in the assay with ScGWT1-expressing yeast (compound 12.5 μg/ml), 0.6670; in the assay on ScGWT1-expressing yeast (compound 25 μg/ml), 0.1140; in the assay on ScGWT1-expressing yeast (compound 50 μg/ml), 0.0420; in the assay on opfGWT1-expressing yeast (compound 6.25 μg/ml), 0.6990; in the assay with opfGWT1-expressing yeast (compound 12.5 μg/ml), 0.6910. The “culture turbidity at 660 nm” value worked out at 0.3630 with opfGWT1-expressing yeast (compound 25 μg/ml) and 0.0530 in the assay with opfGWT1-expressing yeast (compound 50 μg/ml).
On to `CCCCc1ccc(Cc2nccc3ccccc23)c(O)c1` [compound (3), 5-butyl-2-(1-isoquinolylmethyl) phenol], for which, in assay [1], the “antimalarial activity (infection rate of red blood cells)” value was “strong antimalarial activity”.
As for `COc1cccnc1Cc1ccc(Br)cc1F` [compound (4), 2-(4-bromo-2-fluorobenzyl)-3-methoxypyridine], the “antimalarial activity (infection rate of red blood cells)” value in assay [1] is recorded as “lowest activity”.
